Laboratory results published in paper PMC8633983, “GTP binding to translation factor eIF2B stimulates its guanine nucleotide exchange activity” (iScience, 2021).

Molecular target: T1, eIF2Bγ (in eIF2B complex) (Saccharomyces cerevisiae, UniProt P09032)
T1 construct: gene GCD1; purified eIF2B complex; with eIF2Bε (GCD6) and the other eIF2B subunits
Test: competition filter binding against […]-GTP

T1 sequence (P09032 whole entry): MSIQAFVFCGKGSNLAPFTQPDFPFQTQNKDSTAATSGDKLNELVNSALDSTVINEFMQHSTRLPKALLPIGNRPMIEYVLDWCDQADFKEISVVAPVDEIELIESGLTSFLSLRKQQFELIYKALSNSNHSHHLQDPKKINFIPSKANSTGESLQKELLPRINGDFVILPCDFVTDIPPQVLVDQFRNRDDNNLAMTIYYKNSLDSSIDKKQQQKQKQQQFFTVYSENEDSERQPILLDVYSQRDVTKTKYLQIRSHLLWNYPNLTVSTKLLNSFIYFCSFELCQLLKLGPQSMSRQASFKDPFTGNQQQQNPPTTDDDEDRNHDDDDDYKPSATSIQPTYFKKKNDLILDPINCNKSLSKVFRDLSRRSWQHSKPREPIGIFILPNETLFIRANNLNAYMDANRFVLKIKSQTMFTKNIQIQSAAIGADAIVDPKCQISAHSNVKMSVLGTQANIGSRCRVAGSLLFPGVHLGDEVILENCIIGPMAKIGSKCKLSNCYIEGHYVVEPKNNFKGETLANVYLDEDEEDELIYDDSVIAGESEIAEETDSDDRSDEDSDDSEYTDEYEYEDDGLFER
T1 sequence (P32501 whole entry partner): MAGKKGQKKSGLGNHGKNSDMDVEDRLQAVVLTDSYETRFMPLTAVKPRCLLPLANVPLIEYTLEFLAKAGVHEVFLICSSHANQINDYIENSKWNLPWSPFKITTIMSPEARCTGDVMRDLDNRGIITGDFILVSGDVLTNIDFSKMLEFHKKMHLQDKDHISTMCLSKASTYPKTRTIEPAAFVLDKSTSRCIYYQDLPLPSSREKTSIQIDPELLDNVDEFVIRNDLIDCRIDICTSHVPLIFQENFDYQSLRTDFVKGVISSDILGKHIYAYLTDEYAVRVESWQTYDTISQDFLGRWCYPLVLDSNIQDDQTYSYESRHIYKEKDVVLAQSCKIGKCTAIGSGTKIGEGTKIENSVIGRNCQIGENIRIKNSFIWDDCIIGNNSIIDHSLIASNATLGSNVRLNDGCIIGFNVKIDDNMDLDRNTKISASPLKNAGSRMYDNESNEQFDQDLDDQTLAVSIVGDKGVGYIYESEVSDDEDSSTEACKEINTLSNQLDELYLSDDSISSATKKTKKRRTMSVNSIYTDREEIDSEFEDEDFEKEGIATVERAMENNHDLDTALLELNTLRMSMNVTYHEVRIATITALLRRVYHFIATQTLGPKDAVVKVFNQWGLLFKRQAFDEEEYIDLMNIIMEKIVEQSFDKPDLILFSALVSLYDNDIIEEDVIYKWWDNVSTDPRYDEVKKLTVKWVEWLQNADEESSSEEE
T1 sequence (P14741 2-305 partner): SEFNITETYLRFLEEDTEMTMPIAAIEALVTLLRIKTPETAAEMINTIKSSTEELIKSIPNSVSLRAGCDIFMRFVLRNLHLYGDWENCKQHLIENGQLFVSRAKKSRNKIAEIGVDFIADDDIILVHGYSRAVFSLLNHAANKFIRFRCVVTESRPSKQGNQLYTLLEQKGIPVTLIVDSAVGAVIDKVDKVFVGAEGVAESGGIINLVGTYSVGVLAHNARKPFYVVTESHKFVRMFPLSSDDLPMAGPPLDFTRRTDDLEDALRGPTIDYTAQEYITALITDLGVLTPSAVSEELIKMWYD
T1 sequence (P32502 whole entry partner): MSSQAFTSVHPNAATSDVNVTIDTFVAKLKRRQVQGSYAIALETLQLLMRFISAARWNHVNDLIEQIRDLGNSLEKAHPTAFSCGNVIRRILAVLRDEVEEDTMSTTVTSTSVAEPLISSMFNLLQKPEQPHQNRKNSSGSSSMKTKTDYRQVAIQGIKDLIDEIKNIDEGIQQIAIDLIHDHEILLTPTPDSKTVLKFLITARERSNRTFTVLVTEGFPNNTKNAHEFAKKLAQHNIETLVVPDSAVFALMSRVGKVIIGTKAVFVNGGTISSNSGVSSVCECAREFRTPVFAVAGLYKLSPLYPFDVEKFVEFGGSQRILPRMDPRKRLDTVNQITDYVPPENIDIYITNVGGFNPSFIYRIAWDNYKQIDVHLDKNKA
T1 sequence (P12754 2-651 partner): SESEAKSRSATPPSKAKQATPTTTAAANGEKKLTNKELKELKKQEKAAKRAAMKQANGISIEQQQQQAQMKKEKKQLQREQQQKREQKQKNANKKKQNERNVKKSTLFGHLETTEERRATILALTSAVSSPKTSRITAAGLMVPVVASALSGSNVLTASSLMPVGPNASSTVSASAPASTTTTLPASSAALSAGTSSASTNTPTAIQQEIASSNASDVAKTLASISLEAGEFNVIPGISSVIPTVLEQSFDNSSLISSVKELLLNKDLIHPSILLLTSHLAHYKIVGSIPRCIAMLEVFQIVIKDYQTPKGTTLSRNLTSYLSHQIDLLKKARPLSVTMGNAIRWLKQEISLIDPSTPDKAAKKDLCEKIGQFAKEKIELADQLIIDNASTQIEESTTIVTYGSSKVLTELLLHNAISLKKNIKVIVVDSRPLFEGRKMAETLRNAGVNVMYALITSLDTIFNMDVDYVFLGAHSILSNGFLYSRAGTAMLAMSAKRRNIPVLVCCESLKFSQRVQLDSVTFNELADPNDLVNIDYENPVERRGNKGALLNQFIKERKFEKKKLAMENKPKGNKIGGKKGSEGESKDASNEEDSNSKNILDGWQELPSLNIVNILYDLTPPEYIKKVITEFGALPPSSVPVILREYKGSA

Row | Compound | competition filter binding against 32P-GTP
1 | Nc1ncnc2c1ncn2[C@@H]1O[C@H](COP(=O)(O)OP(=O)(O)OP(=O)(O)O)[C@@H](O)[C@H]1O [ATP] | suggesting eIF2B can bind both ATP and GTP, but with a preference for GTP
2 | Nc1nc2c(ncn2[C@@H]2O[C@H](COP(=O)(O)OP(=O)(O)O)[C@@H](O)[C@H]2O)c(=O)[nH]1 [GDP] | GTP was a more effective competitor than ATP or GDP
